In brackets after ≈: the same amount, converted by molar mass. Several values for one entry are separate records, joined by “and”; a condition that tells them apart may be missing. Equal entries are not always repeated. Structures can show the parent of a compound that is named as a salt.
What was measured:
NV-RdRp = test system: NV-RdRp; set-up: method as in earlier work; details: ref 34 (Tarantino et al., in press); cited from earlier work
[1] = Water solubility (Bookser's method); assay type: physicochemical; details: thermodynamic from solid, deionized water, saturated solution
From the text: (§1) Bookser's method was applied to obtain the water solubility of sodium organosulphonates 3–8 and Suramin (9) by use of HPLC with a UV detector (see Table 1). Furthermore, the “shake–flask method” [28] was applied to obtain their hydrophobicity by use of n-octanol and water. The apparent partition coefficient (P) shown in Table 1 is the ratio of the concentration in n-octanol to the total concentration (i.e., ionized plus non-ionized) of the species in the aqueous phase, [29].
A stock solution was prepared by dissolving a precisely weighed amount of Suramin derivatives in deionized water (1.0 ml). The UV absorption maximum of each compound was measured by dilution of the solution with deionized water as necessary. A saturated solution of each compound was then prepared by use of deionized water (1.0 ml) in the presence of an excess of Suramin derivatives for 1.0 hour. The obtained saturated solution was filtered to remove solid compound through a Millipore filter (0.45 μm) and was scanned by UV spectroscopy at the wavelength of the absorption maximum previously determined.

mNV-RdRp [2] = biological target: T1, mNV-RdRp (Norovirus, UniProt Q80J95); experiment: In-vitro RdRp inhibition assay (PicoGreen fluorescence, poly(C)/oligoG12); assay type: biochemical; details: poly(C) template, G12 primer, GTP 100 μM; read-out: IC50 mNVRdRp
T1 construct: Solutions of 4 μl of the NV-RdRp domain (final hNV-RdRp concentration 7 μM, final mNV-RdRp concentration 1.6 μM); made in house
Description: (§2) hNV and mNV-RdRp inhibition assays were performed monitoring the impairment of RNA synthesis as a function of inhibitor concentration, as previously described. Briefly, RdRp activity was assessed in vitro (measuring PicoGreen fluorescence) following the synthesis of double-stranded RNA from a single-stranded RNA poly(C) template annealed with a G12 primer. The assay can easily be adapted for any viral RNA polymerase.
(§3) RdRp assays were performed as previously described. In brief poly(C) (MP Biomedicals) was used as template annealed with oligoG12 as primer (62.5 nM final concentration) and GTP (100 μM final concentration) as substrate, in a 200 μl reaction mixture containing 20 mM Tris/HCl pH 7.5, 25 mM NaCl, 5 mM MgCl2, 0.3 mM MnCl2, 1 mM DTT, PicoGreen Quantitation Reagent (Molecular Probes) diluted 1/200 20 U ml−1 RiboLock Ribonuclease Inhibitor (Fermentas). Reactions were started by the addition of GTP following the fluorescence of samples in a fluorescence reader (Varian, Cary Eclipse Fluorescence Spectrophotometer).

hNV-RdRp [3] = biological target: T2, hNV-RdRp (Norovirus GII (human norovirus; Norwalk-like virus), UniProt A0ZNP5); experiment: as above; assay type: biochemical; details: poly(C) template, G12 primer, GTP 100 μM; read-out: IC50 hNVRdRp
Description: as §2, §3

[4] = n-Octanol/water partition coefficient (shake-flask method); assay type: physicochemical; details: n-octanol / pH 7.4 phosphate buffer, 25 °C, average of three experiments, read-out: hydrophobicity log P
From the text: as §1
The n-octanol/water partition coefficient of Suramin derivatives was determined by the shake-flask method. n-Octanol and pH 7.4 phosphate buffer were mutually saturated for 4.0 hours, and the phases were separated. A stock solution of each Suramin derivative was prepared using pH 7.4 phosphate buffer solution. Suramin derivatives were partitioned between n-octanol and pH 7.4 phosphate buffer. Then the phase mixtures were shaken for 1 hour at constant 25 °C. After separation, the absorbance of the phosphate buffer solutions (pH 7.4) was measured by UV spectrophotometry. Three replicates were performed for each compound. The P value corresponded to the quotient between n-octanol and buffer concentrations of the drug. The log P values were an average of three independent experiments.

mNV-RdRp [5] = biological target: T1, mNV-RdRp; experiment: Thermofluorimetric (thermal shift) assay; assay type: binding; details: inhibitor 4 μM, mNV-RdRp 1.6 μM, Sypro Orange; free enzyme Tm 39.6 ±0.2
Description: (§4) In order to exclude that 8 and 6 inhibition might be linked to some form of RdRp destabilization/aggregation/denaturation, a process generally reflected by a variation of the protein melting temperature (Tm), we performed thermofluorimetric assays on free and inhibited NV-RdRps.
(§5) Thermofluorimetric (Thermal shift) assays for the evaluation of the hNV-RdRp melting temperature (Tm) in the absence/presence of the inhibitors, were conducted in a MiniOpticon Real Time PCR Detection System (Bio-Rad), using the fluorescent dye Sypro Orange. Solutions of 4 μl of the NV-RdRp domain (final hNV-RdRp concentration 7 μM, final mNV-RdRp concentration 1.6 μM) were diluted in 9.5 μl of its buffer, and mixed with 3.5 μl of Sypro orange (Sigma) diluted 60×, and 1 μl of 6 or 8 (4 μM final concentration). In control samples the inhibitors were replaced by water. The sample plates were heated from 20 to 90°C with a heating rate of 0.2 °C/min. Fluorescence intensities were measured within excitation/emission ranges of 470–505 nm and 540–700 nm, respectively.

hNV-RdRp [6] = biological target: T2, hNV-RdRp; experiment: Thermofluorimetric (thermal shift) assay; assay type: binding; details: inhibitor 4 μM, hNV-RdRp 7 μM, Sypro Orange; free enzyme Tm 41.5
Description: as §4, §5

[7] = Solubility in organic solvents (observation during synthesis); assay type: physicochemical; details: most organic solvents, including THF and DMSO
[8] = statement in the Introduction, no reference given; cited from earlier work

| Structure (SMILES) | solubility at 1 h [1] [mg/mL] | IC50 (mNV-RdRp [2]) | IC50 (hNV-RdRp [3]) [nM] | logP at 1 h [4] | mNV-RdRp Tm in the presence of inhibitor (mNV-RdRp [5]) [°C] | hNV-RdRp Tm in the presence of inhibitor (hNV-RdRp [6]) [°C] | Solubility in organic solvents [7] | inhibitory potency against NV-RdRp (NV-RdRp) | log P [8] |
| --- | --- | --- | --- | --- | --- | --- | --- | --- | --- |
| Cc1nc(N=Nc2cc(S(=O)(=O)O)c3cc([N+](=O)[O-])cc(S(=O)(=O)O)c3c2)c(COP(=O)(O)O)c(C=O)c1O [PPNDS] |  |  |  |  |  |  |  | low nM |  |
| Cc1ccc(C(=O)Nc2ccc(S(=O)(=O)O)c3cccc(S(=O)(=O)O)c23)cc1[N+](=O)[O-] [Compound 3, 4-(4-Methyl-3-nitrobenzamido)naphthalene-1,5-disulphonate Acid Disodium Salt] | 260 | 200 ± 10 nM | 1280 ± 70 | -2.19 |  |  |  |  |  |
| Cc1ccc(C(=O)Nc2ccc(S(=O)(=O)O)c3cccc(S(=O)(=O)O)c23)cc1N [Compound 4, 4-(3-Amino-4-methylbenzamido)naphthalene-1,5-disulphonate Acid Disodium Salt] | 339 | 160 ± 7 nM | 1100 ± 200 | -2.33 |  |  |  |  |  |
| Cc1ccc(C(=O)Nc2ccc(S(=O)(=O)O)c3cccc(S(=O)(=O)O)c23)cc1NC(=O)c1cccc(N)c1 [Compound 7, 4-[3-(3-Aminobenzamido)-4-methylbenzamido]naphthalene-1,5-disulphonate Acid Disodium Salt] | 249 | 160 ± 6 nM | 1100 ± 50 | -2.11 |  |  | very poor |  |  |

Continued by falling IC50 (hNV-RdRp [3]), values first:

| solubility at 1 h [1] [mg/mL] | IC50 (mNV-RdRp [2]) | IC50 (hNV-RdRp [3]) [nM] | logP at 1 h [4] | mNV-RdRp Tm in the presence of inhibitor (mNV-RdRp [5]) [°C] | hNV-RdRp Tm in the presence of inhibitor (hNV-RdRp [6]) [°C] | Solubility in organic solvents [7] | Structure (SMILES) | inhibitory potency against NV-RdRp (NV-RdRp) | log P [8] |
| --- | --- | --- | --- | --- | --- | --- | --- | --- | --- |
| 179 | 115 ± 15 nM | 1000 ± 90 | -1.64 | 39.4±0.3 | 41.2±0.2 |  | Cc1ccc(C(=O)Nc2ccc(S(=O)(=O)O)c3cccc(S(=O)(=O)O)c23)cc1NC(=O)c1cccc([N+](=O)[O-])c1 [Compound 6, 4-[4-Methyl-3-(3-nitrobenzamido)benzamido]naphthalene-1,5-disulsulphonate Acid Disodium Salt] |  |  |
| 114 | ~60 nM and 60 nM | 28 ± 4 | -1.61 | 39.8 ±0.2 | 41.4 |  | Cc1ccc(C(=O)Nc2ccc(S(=O)(=O)O)c3cccc(S(=O)(=O)O)c23)cc1NC(=O)c1cccc(NC(=O)Nc2cccc(C(=O)Nc3cc(C(=O)Nc4ccc(S(=O)(=O)O)c5cccc(S(=O)(=O)O)c45)ccc3C)c2)c1 [Compound 8, 4-4′-(Carbonylbis[imino-3,1-phenylenecarbonylimino(4-methyl-3,1-phenylene)carbonylimino])bis-1,5-naphthalenedisulphonate Acid Tetrasodium Salt] |  |  |
| 138 (≈ 106 mM) | 70 ± 3 nM | 27 ± 3 | -3.42 |  |  |  | Cc1ccc(C(=O)Nc2ccc(S(=O)(=O)O)c3cc(S(=O)(=O)O)cc(S(=O)(=O)O)c23)cc1NC(=O)c1cccc(NC(=O)Nc2cccc(C(=O)Nc3cc(C(=O)Nc4ccc(S(=O)(=O)O)c5cc(S(=O)(=O)O)cc(S(=O)(=O)O)c45)ccc3C)c2)c1 [Suramin (9), Suramin] |  | lower than 0 |

Reference: PMC3951423, “Structural Bases of Norovirus RNA Dependent RNA Polymerase Inhibition by Novel Suramin-Related Compounds” (PLoS ONE, 2014)
